{"source": "paper PMC9862186", "about": "(International Journal of Molecular Sciences, 2023)", "key": {"[1]": {"experiment": "in vivo", "conditions": "rat, po", "experimental": "(§1) At the end of the infusions and at fixed time points, CSF samples (50 μL) were withdrawn and blood samples (100 μL) were collected. The CSF was withdrawn using the cisternal puncture method described by van den Berg et al., which requires a single needle stick and allows the collection of serials (40–50 μL) CSF samples that are virtually blood-free. A total volume of about a maximum of 150 μL of CSF/rat (i.e., three 50 μL samples/rat) was collected during the experimental session, choosing the time points (n = 3–5, taking into account a maximum of three collections per rat) in order to allow the restoring of the CSF physiological volume.\n(§2) Each type of formulation was administered to a group of four rats.\n(§3) In particular, 4.2 mL of EU-CD formulation were administered to rats (500 mg/kg dose).\n(§4) In particular, 320 μL of EU-SL formulation were administered to rats (500 mg/kg dose).\n(§5) Free cinnamaldehyde (100 mg) was orally administered by gavage to rats kept fasting since 24 h. In particular, 95 μL of cinnamaldehyde (density = 1.05 g/mL) were dissolved in 905 μL of corn oil and administered to rats (400 mg/kg dose).\n(§6) The solid AC-GN formulation (14% w/w cinnamaldehyde) was mixed with palatable food in order to induce their oral intake by the rats kept fasting since 24 h. In particular, the rats assumed a dose of 100 mg of cinnamaldehyde (400 mg/kg) contained in 714 mg of AC-GN.\n(§7) After the administrations, blood (100 μL) and CSF samples (50 μL) were serially collected at fixed time points from each rat and treated as described above in order to quantify the compounds."}, "[2]": {"system": "rats", "conditions": "cited from earlier work"}, "[3]": {"experiment": "in vivo", "conditions": "male, Wistar, rat, in vivo, iv", "experimental": "(§8) A saline solution (0.9% NaCl) was added to a mixture of cinnamaldehyde (density = 1.05 g/mL) and Cremophor® RH 40 (1:1 v/v) in order to obtain a 12.5 mg/mL cinnamaldehyde emulsion in the presence of ethanol (10% of final volume). A group (n = 4) of male Wistar rats (200–250 g) fasted for 24 h was anesthetized during the experimental period and received 0.4 mL via a femoral intravenous infusion (rate = 0.2 mL/min; 2 min) of 12.5 mg/mL cinnamaldehyde emulsion (20 mg/kg cinnamaldehyde dose).\nas §1\nThe samples were centrifuged at 12,500× g for 5 min, then about 300 μL of supernatant were withdrawn and further centrifuged. […] As a control, a blood sample (100 μL) was collected by each rat before the administrations of the drugs. The control samples were immediately added to 300 μL of ice-cold CH3CN in the absence of internal standard, then treated as described above.\nFor cinnamaldehyde analysis the blood samples were hemolyzed immediately after their collection with 500 μL of ice-cold water, and then 50 μL of 10% sulfosalicylic acid and 50 μL of internal standard (100 μM carbazole dissolved in a water-methanol mixture 50:50 v/v) was added. The samples were extracted twice with 1 mL of water-saturated ethyl acetate, and, after centrifugation at 12,500× g for 10 min, the organic layer was reduced to dryness under a mild nitrogen stream at room temperature. Then, 200 μL of a water-acetonitrile mixture (50:50 v/v) were added, and after centrifugation, 10 μL were analyzed via HPLC (see below) for cinnamaldehyde detection. As a control, a blood sample (100 μL) was collected by each rat before the administration of the drug. The control samples were treated as described above in the absence of internal standard.\n(§9) In particular, all the AUC values referred to the bloodstream were calculated by the trapezoidal method within the last time point detected, and the remaining area was obtained as the ratio between the compound concentration detected at the last time point and the elimination constant (kel), which was obtained from the slope of the semilogarithmic plots (−slope × 2.3). The clearance (Cl) and distribution volume (Vd) values were calculated according to the non-compartmental model as the ratios “dose/AUC” and “Cl/kel”, respectively, where kel is the elimination constant obtained by the slope of semilogarithmic plot.\n(§10) The chromatographic apparatus consisted of a modular system (model LC-10 AD VD pump and model SPD-10A VP variable wavelength UV−vis detector; Shimadzu, Kyoto, Japan) and an injection valve with 20 μL sample loop (model 7725; Rheodyne, IDEX, Torrance, CA, USA). Separations were performed at room temperature on a 5 μm Hypersil BDS C-18 column (150 mm × 4.6 mm i.d.; Alltech Italia Srl, Milan, Italy) equipped with a guard column packed with the same Hypersil material. The volume injection was 10 μL. Data acquisition and processing were performed on a personal computer using CLASS-VP Software, version 7.2.1 (Shimadzu Italia, Milan, Italy).\nThe detector was set at 205 nm."}, "[4]": {"experiment": "in vivo", "conditions": "for Kp at 10 min: R: ratio of concentration between CSF and bloodstream at Tmax", "experimental": "as §8, §1, §10\nFor CSF simulation, standard aliquots of balanced solution (Dulbecco’s phosphate buffer saline—DPBS—without calcium and magnesium) in the presence of 0.45 mg/mL BSA were used."}, "[5]": {"experiment": "in vivo", "conditions": "Wistar, rat; for bioavailability: F: absolute bioavailability", "experimental": "as §2, §3, §4, §5, §6, §7, §9"}, "[6]": {"conditions": "rat, in vivo, cited from earlier work"}, "[7]": {"system": "PC12 cells", "experiment": "Dopamine release from neuronal differentiated PC12 cells (ELISA)", "format": "cell-based, rat", "conditions": "60 mM K^+, 5 min, control stimulus; baseline 393 ± 12 pg/mL", "experimental": "PC12 cell line (RRID:CVCL_0481), derived from rat adrenal gland pheochromocytoma, was a kind gift from Dr Federica Brugnoli from the Department of Translational Medicine, University of Ferrara, Ferrara (Italy). The cells were grown in RPMI-1640 (HiGlutaXL) medium (Microtech, Naples, Italy), supplemented with 100 µg/mL streptomycin and 100 IU/mL penicillin, 10% horse serum (HS), and 5% fetal bovine serum (FBS). PC12 cells were gently removed from the 4 µg/cm^2 collagen IV-coated flask with a rubber scraper, transferred as cell suspension into a Falcon tube and resuspended through a sterile tip to avoid any clumping, then split into separate flasks twice weekly. To differentiate neuronal phenotypes, PC12 cells were seeded in 4 µg/cm^2 collagen IV-coated 12-well plates at a density of 5000 cells/well, and they were then left to adhere to the well for 24 h. […] All the proliferative and differentiated cultures were maintained at 37 °C in a humidified 5% CO2 atmosphere.\nPC12 cells differentiated to neuronal-like phenotype in collagen IV-treated 12-well plates, were first synchronized all to the same circadian phase and cell cycle by a serum shock (50% HS and 50% DMEM HiGlutaXL) for 2 h at 37 °C [49] to achieve a synchronous release of dopamine. Synchronization medium was then aspirated off, cells were washed with 3 × 1 mL and equilibrated for 15 min at 37 °C in 1 mL of Krebs Ringer HEPES (KRH) physiological buffer, following the recipe of Mount et al. (25 mM HEPES/Tris, pH 7.4, 1.2 mM KH2PO4, 125 mM NaCl, 4.8 mM KCl, 1.2 mM MgSO4, 2.2 mM CaCl2, 5.6 mM glucose, 1.0 mM ascorbic acid, 10 µM pargyline, 1.0 µM nomifensine). […] To remove cell debris, all samples of 1 mL incubation KRH at the end of treatments were centrifuged at 1000× g for 20 min at 4 °C and stored at −20 °C until dopamine levels were determined by ELISA assay.\nDopamine levels in 1 mL incubation KRH buffer were detected by means of an ELISA assay, based on the […] ELISA principle for detection of dopamine, following manufacturer’s instructions (IBL International, Hamburg, Germany–catalog no: RE59161; purchased from Tecan Italia S.r.I, Milan, Italy). After the substrate reaction, the intensity of the developed color was proportional to the amount of dopamine, detected at 450 nm using a microplate reader spectrophotometer (Sunrise® Microplate Reader, Tecan Trading AG, Männedorf, Switzerland). Results of samples were determined directly using the standard curve. Results are presented as mean ± SE values of four independent experiments. Data were plotted and analyzed with GraphPad software (Prism, version 7.0, San Diego, CA, USA)."}, "[8]": {"system": "PC12 cells", "conditions": "cited from earlier work"}, "[9]": {"conditions": "male, Wistar, rat, in vivo, iv, 20 mg/kg"}}, "note": "Read-outs that look alike come from different tables or passages of the source."}
{"smiles": "O=C/C=C/c1ccccc1", "note": "[Cinnamaldehyde, cinnamaldehyde]", "values": [{"measurement": "AUC in CSF to last time of detection", "setting": "[1]", "value": 0, "unit": "µg·min/mL"}, {"measurement": "Tmax: time of Cmax in CSF", "setting": "[1]", "value": 0, "unit": "h"}, {"measurement": "oral LD50", "setting": "[2]; oral", "value": "about 3 g/kg"}, {"measurement": "intravenous dose known to induce toxicity", "setting": "[2]; rats, iv", "value": 25, "unit": "mg/kg"}, {"measurement": "intravenous dose that appears lethal", "setting": "[2]; rats, iv", "value": 30, "unit": "mg/kg"}, {"measurement": "Vd", "setting": "[3]", "value": "1.32 ± 0.19", "unit": "L/kg"}, {"measurement": "clearance", "setting": "[3]", "value": "39.5 ± 1.7", "unit": "mL/min/kg"}, {"measurement": "half-life", "setting": "[3]", "value": "23.1 ± 1.6", "unit": "min"}, {"measurement": "AUC", "setting": "[4]; male, Wistar, rat, in vivo, iv", "value": 1610, "unit": "ng·h/mL"}, {"measurement": "AUC", "setting": "[4]; [9]", "value": 1610, "unit": "ng·h/mL"}, {"measurement": "Cmax", "setting": "[4]; [9]", "value": "2040 ± 360", "unit": "ng/mL"}, {"measurement": "Kp at 10 min", "setting": "[4]; male, Wistar, rat, in vivo, iv, rat, iv, 10 min from the end of infusion", "value": "0.156 ± 0.038"}, {"measurement": "time within which CSF concentrations decreased to zero or near to zero", "setting": "[4]; rat CSF, iv 20 mg/kg", "value": "≤ 75", "unit": "min"}, {"measurement": "R: ratio of concentration between CSF and bloodstream at Tmax", "setting": "[4]; rat, iv, 10 min from the end of infusion", "value": "0.16 ± 0.04"}, {"measurement": "Tmax: time of Cmax in the bloodstream", "setting": "[5]", "value": 40, "unit": "min"}, {"measurement": "F: absolute bioavailability", "setting": "[5]; po", "value": "7.33 ± 0.37", "unit": "%"}, {"measurement": "RB: relative bioavailability", "setting": "[5]; po", "value": 100, "unit": "%"}, {"measurement": "bioavailability", "setting": "[5]; po", "value": 7, "unit": "%"}, {"measurement": "C0", "setting": "[6]; iv, 20 mg/kg", "value": "about 0.5 μg/mL"}, {"measurement": "C0", "setting": "[6]; iv, 25 mg/kg", "value": "about 20 mg/mL"}, {"measurement": "F (oral bioavailability)", "setting": "[6]; po", "value": "less than 20%"}]}
{"smiles": "[Cl-].[K+]", "note": "[K^+, reference compound]", "values": [{"measurement": "dopamine release", "setting": "[7]", "value": "4340 ± 265", "unit": "pg/mL"}]}
{"smiles": "C=C(C)[C@H]1CC=C(C)CC1", "note": "[D-Limonene, D-limonene]", "values": [{"measurement": "AUC in CSF to last time of detection", "setting": "[1]", "value": 0, "unit": "µg·min/mL"}, {"measurement": "Tmax: time of Cmax in CSF", "setting": "[1]", "value": 0, "unit": "h"}, {"measurement": "Cl: clearance", "setting": "[3]", "value": "284 ± 10", "unit": "mL·min/kg"}, {"measurement": "Vd", "setting": "[3]", "value": "5.52 ± 0.558", "unit": "L/kg"}, {"measurement": "half-life", "setting": "[3]", "value": "12.4 ± 0.9", "unit": "min"}, {"measurement": "clearance", "setting": "[3]; Cl: clearance", "value": "284 ± 10.4", "unit": "mL/min/kg"}, {"measurement": "detection in the CSF of rats after intravenous administration", "setting": "[4]; iv 100 mg/kg, within 90 min after the end of infusion", "value": "not detected"}, {"measurement": "AUC in CSF from the end of infusion to last time of detection", "setting": "[4]; male, Wistar, rat, in vivo, iv", "value": 0, "unit": "µg·min/mL"}, {"measurement": "Kp at 10 min", "setting": "[4]; male, Wistar, rat, in vivo, iv", "value": 0}, {"measurement": "Tmax: time of Cmax in the bloodstream", "setting": "[5]", "value": 30, "unit": "min"}, {"measurement": "F: absolute bioavailability", "setting": "[5]; po", "value": "7.04 ± 0.96", "unit": "%"}, {"measurement": "bioavailability", "setting": "[5]; po", "value": 7, "unit": "%"}, {"measurement": "C0", "setting": "[6]; iv, 200 mg/kg", "value": "higher than 80 μg/mL"}, {"measurement": "terminal t1/2", "setting": "[6]; iv, 200 mg/kg", "value": 280, "unit": "min"}, {"measurement": "Cmax", "setting": "[6]; po, 75 mg/kg", "value": "~300", "unit": "ng/mL"}, {"measurement": "Cmax", "setting": "[6]; po, 200 mg/kg", "value": "about 11 μg/mL"}]}
{"smiles": "Oc1ccc(/C=C/c2cc(O)cc(O)c2)cc1", "note": "[resveratrol]", "values": [{"measurement": "most effective concentration in increasing the viability of PC12 cells", "setting": "[8]", "value": 25, "unit": "µM"}]}
